# Measured values published in patent publication US20250223561A1, “PHARMACEUTICAL COMPOSITION CONTAINING miR-140 AND METHOD FOR PRODUCING SAME” (HIROKO SCIENCE INC., priority 2022, published 2025).
# Several values for one entry are separate records, joined by “and”; a condition that tells them apart may be missing. Identical values can stand only once.
# Assays:
# [1] = tested on: immortalized chondrocytes; test: Total RNA extracted from exosomal fractions of immortalized chondrocytes treated with exosome release enhancers (Nano Drop); format: cell-based, human; conditions: for Nucleic Acid conc.: RNA from exosomal fraction of culture supernatant, cells cultured with 10 nM estradiol, enhancer added on day four (10 uM monensin, 20 nM aplimod, 10 uM D609), Nano Drop, dilution ratio 1; for Amount of RNAs: same samples, liquid volume 15 ul
# Protocol: (§1) The fifth passage of immortalized chondrocytes was passaged and seeded in four flasks with a volume of 75 cm^2 at a concentration of 1.5×10^6 cells per flask. Culturing was started after adding 10 nM of estradiol to three of them and without adding it to one of them. […] The medium was collected from each flask the following day and then centrifuged at 1,500 rpm for 5 min. The supernatants were further filtered through a filter with a pore size of 0.22 um and stored as exosomal fractions at −80° C. until an analysis of miR.
# MicroRNAs were extracted from the exosomal fractions in Example 2 using an exoRNAeasy Serum/Plasma Maxi Kit (Qiagen). The A260/A280 and A260/A230 ratios of the extracted RNAs were measured using a spectrophotometer Nano Drop One (Thermo Fisher Scientific), showing that the samples were free of protein and salt impurities. Electrophoresis of the samples was further conducted using Agilent 2100 Bioanalyzer (Aligent Technologies), confirming that only the target nucleic acids were contained.
# miR-140 = test: Expression of miR-140 in exosomal fractions by real-time PCR; format: cell-based, human; conditions: for Cp value: Hs miR-140_1 primer assay (miR-140-5p), single replicates n1, n2, low Cp value means a large amount of miR-140; for Cp value Average: Hs miR-140_1 primer assay, average of n1 and n2
# Protocol: as §1
# cDNA synthesis was conducted with the extracted RNAs using miScript II RT Kit (catalog No. 218160, Qiagen) under the following conditions.
# Real-time PCR reactions were conducted on a real-time PCR system (LightCycler 480, Roche) under the following conditions using miScript SYBR Green PCR Kit (catalog No. 218073, Qiagen) with the cDNAs synthesized as described above. The primer for the miR-140 measurement was Hs_miR-140_1 miScript Primer Assay (catalog No. MS00003500, has-miR-140-5p: MIMAT0000431).
Compound,Nucleic Acid conc. [1] [ng/µL],"amount of nucleic acid collected (comparison among treatments) ([1]; compared with control, aplimod and D609 samples)",Amount of RNAs [1] [ng],miR-140 content compared with the other groups (miR-140; from real-time PCR Cp values),Cp value (miR-140; listed as 4-D),Cp value Average (miR-140),Cp value (miR-140; listed as 3-Apl)
"CC[C@@]1([C@@H]2O[C@@H]([C@H]3O[C@@](O)(CO)[C@H](C)C[C@@H]3C)C[C@@H]2C)CC[C@H]([C@]2(C)CC[C@]3(C[C@H](O)[C@@H](C)[C@@H]([C@@H](C)[C@@H](OC)[C@H](C)C(=O)O)O3)O2)O1 [Mo, monensin]",290.5,highest,4357.6,nearly twice as much miR-140 as the others,–,–,–
"S=C(S)OC1CC2CC1C1CCCC21 (stereo not drawn) [D, D609]",206.3,–,3094.4,–,36.84 and 36.89,36.87,–
"Cc1cccc(/C=N/Nc2cc(N3CCOCC3)nc(OCCc3ccccn3)n2)c1 [Apl, aplimod]",179.7,–,2695.9,–,–,36.77,36.78 and 36.76
